{"source": "patent US9822105B2", "about": "“Diaminotriazine compounds as herbicides” (BASF SE, priority 2014, dated 2017)"}
{"system": "ECHCG", "test": "Greenhouse test, pre-emergence treatment", "format": "in vivo, Echinocloa crus-galli", "conditions": "125 g/ha", "source_text": "(§1) The seeds of the test plants were sown separately for each species. For the pre-emergence treatment, the active ingredients, which had been suspended or emulsified in water, were applied directly after sowing by means of finely distributing nozzles. The containers were irrigated gently to promote germination and growth and subsequently covered with transparent plastic hoods until the plants had rooted. This cover caused uniform germination of the test plants, unless this had been impaired by the active ingredients. Depending on the species, the plants were kept at 10-25° C. or 20-35° C., respectively. The test period extended over 2 to 4 weeks. During this time, the plants were tended, and their response to the individual treatments was evaluated. Evaluation was carried out using a scale from 0 to 100. 100 means no emergence of the plants, or complete destruction of at least the aerial moieties, and 0 means no damage, or normal course of growth. […] The plants used in the greenhouse experiments were of the following species: [table]"}
{"smiles": "CC(C)Cc1nc(N)nc(Nc2c(F)ccc3c2OCO3)n1", "note": "[Example 26]", "herbicidal activity": "good (a good herbicidal activity is given at values of at least 70)"}
{"smiles": "Nc1nc(Nc2c(F)ccc3c2OCO3)nc(C2CCCC2)n1", "note": "[Example 28]", "herbicidal activity": "good (a good herbicidal activity is given at values of at least 70)"}
{"smiles": "CC(C)(F)c1nc(N)nc(Nc2c(Cl)c(Cl)cc3c2OCO3)n1", "note": "[Example 31]", "herbicidal activity": "good (a good herbicidal activity is given at values of at least 70)"}
{"system": "ECHCG", "test": "Greenhouse test, pre-emergence treatment", "format": "in vivo, Echinocloa crus-galli", "conditions": "250 g/ha", "source_text": "as §1"}
{"smiles": "CC1Oc2ccc(F)c(Nc3nc(N)nc(C(C)(C)F)n3)c2O1", "note": "(single isomer, unassigned) [Example 35]", "herbicidal activity": "very good (a very good herbicidal activity is given at values of at least 85)"}
{"smiles": "Nc1nc(Nc2c(F)ccc3c2OCO3)nc(C2(Cl)CCC2)n1", "note": "[Example 5]", "herbicidal activity": "very good (a very good herbicidal activity is given at values of at least 85)"}
{"system": "ECHCG", "test": "Greenhouse test, pre-emergence treatment", "format": "in vivo, Echinocloa crus-galli", "conditions": "500 g/ha", "source_text": "as §1"}
{"smiles": "CC(C)(F)c1nc(N)nc(Nc2c(Cl)ccc3c2OC=CO3)n1", "note": "[Example 44]", "herbicidal activity": "very good (a very good herbicidal activity is given at values of at least 85)"}
{"system": "AMARE", "test": "Greenhouse test, post-emergence treatment", "format": "in vivo, Amaranthus retroflexus", "conditions": "500 g/ha", "source_text": "The seeds of the test plants were sown separately for each species. For the post-emergence treatment, the test plants were first grown to a height of […], depending on the plant habit, and only then treated with the active ingredients which had been suspended or emulsified in water. For this purpose, the test plants were either sown directly and grown in the same containers, or they were first grown separately as seedlings and transplanted into the test containers a few days prior to treatment. Depending on the species, the plants were kept at 10-25° C. or 20-35° C., respectively. The test period extended over 2 to 4 weeks. During this time, the plants were tended, and their response to the individual treatments was evaluated. Evaluation was carried out using a scale from 0 to 100. 100 means no emergence of the plants, or complete destruction of at least the aerial moieties, and 0 means no damage, or normal course of growth. […] The plants used in the greenhouse experiments were of the following species: [table]"}
{"smiles": "Nc1nc(Nc2c(Br)ccc3c2OC(F)(F)O3)nc(C2(Cl)CCCC2)n1", "note": "[Example 9]", "herbicidal activity": "very good (a very good herbicidal activity is given at values of at least 85)"}
{"system": "ALOMY", "test": "Greenhouse test, pre-emergence treatment", "format": "in vivo, Alopecurus myosuroides", "conditions": "0.5 kg/ha", "source_text": "as §1"}
{"smiles": "CC(C)(F)c1nc(N)nc(Nc2c(Cl)ccc3c2OCO3)n1", "note": "[Example 2]", "herbicidal activity": "very good (a very good herbicidal activity is given at values of at least 85)"}
{"system": "AMARE", "test": "Greenhouse test, pre-emergence treatment", "format": "in vivo, Amaranthus retroflexus", "conditions": "0.5 kg/ha", "source_text": "as §1"}
{"smiles": "CC(C)(F)c1nc(N)nc(Nc2c(Cl)ccc3c2OCO3)n1", "note": "[Example 2]", "herbicidal activity": "very good (a very good herbicidal activity is given at values of at least 85)"}
{"system": "AMARE", "test": "Greenhouse test, pre-emergence treatment", "format": "in vivo, Amaranthus retroflexus", "conditions": "125 g/ha", "source_text": "as §1"}
{"smiles": "CCC(F)c1nc(N)nc(Nc2c(F)ccc3c2OCO3)n1", "note": "(racemic) [Example 33]", "herbicidal activity": "very good (a very good herbicidal activity is given at values of at least 85)"}
{"smiles": "CC(C)Cc1nc(N)nc(Nc2c(F)ccc3c2OCO3)n1", "note": "[Example 26]", "herbicidal activity": "very good (a very good herbicidal activity is given at values of at least 85)"}
{"smiles": "CC(C)(F)c1nc(N)nc(Nc2c(Cl)c(Cl)cc3c2OCO3)n1", "note": "[Example 31]", "herbicidal activity": "very good (a very good herbicidal activity is given at values of at least 85)"}
{"system": "AMARE", "test": "Greenhouse test, pre-emergence treatment", "format": "in vivo, Amaranthus retroflexus", "conditions": "500 g/ha", "source_text": "as §1"}
{"smiles": "CC1CCCN1c1nc(N)nc(Nc2c(F)ccc3c2OCO3)n1", "note": "(racemic) [Example 19]", "herbicidal activity": "very good (a very good herbicidal activity is given at values of at least 85)"}
{"smiles": "CON(C)c1nc(N)nc(Nc2c(F)ccc3c2OCO3)n1", "note": "[Example 25]", "herbicidal activity": "very good (a very good herbicidal activity is given at values of at least 85)"}
{"smiles": "Cn1c(=O)oc2c(Nc3nc(N)nc(C(C)(C)F)n3)c(F)ccc21", "note": "[Example 38]", "herbicidal activity": "very good (a very good herbicidal activity is given at values of at least 85)"}
{"system": "AMARE", "test": "Greenhouse test, pre-emergence treatment", "format": "in vivo, Amaranthus retroflexus", "conditions": "Amaranthus retroflexus, read-out: herbicidal activity, 125 g/ha", "source_text": "as §1", "units": {"pest or weed control at 125 g/ha": "%"}}
{"smiles": "Nc1nc(Nc2c(F)ccc3c2OCO3)nc(C2CCCCC2)n1", "note": "[Example 27]", "pest or weed control at 125 g/ha": "≥ 85"}
{"smiles": "Nc1nc(Nc2c(F)ccc3c2OCO3)nc(C2CCCC2)n1", "note": "[Example 28]", "pest or weed control at 125 g/ha": "≥ 85"}
{"smiles": "CC(C)(F)c1nc(N)nc(Nc2c(Cl)ccc3c2OCCO3)n1", "note": "[Example 42]", "pest or weed control at 125 g/ha": "≥ 85"}
{"system": "AMARE", "test": "Greenhouse test, pre-emergence treatment", "format": "in vivo, Amaranthus retroflexus", "conditions": "Amaranthus retroflexus, read-out: herbicidal activity, 250 g/ha", "source_text": "as §1", "units": {"pest or weed control at 250 g/ha": "%"}}
{"smiles": "Nc1nc(Nc2c(F)ccc3c2OCO3)nc(C2(Cl)CCC2)n1", "note": "[Example 5]", "pest or weed control at 250 g/ha": "≥ 85"}
{"system": "AMARE", "test": "Greenhouse test, pre-emergence treatment", "format": "in vivo, Amaranthus retroflexus", "conditions": "Amaranthus retroflexus, read-out: herbicidal activity, 500 g/ha", "source_text": "as §1", "units": {"pest or weed control at 500 g/ha": "%"}}
{"smiles": "Nc1nc(Nc2c(F)ccc3c2OCO3)nc(N2CCCC2)n1", "note": "[Example 20]", "pest or weed control at 500 g/ha": "≥ 85"}
{"smiles": "CC(C)(F)c1nc(N)nc(Nc2c(F)ccc3c2CCC3)n1", "note": "[Example 41]", "pest or weed control at 500 g/ha": "≥ 85"}
{"smiles": "CC(C)(F)c1nc(N)nc(Nc2c(F)ccc3c2OCCO3)n1", "note": "[Example 43]", "pest or weed control at 500 g/ha": "≥ 85"}
{"smiles": "CC(C)(F)c1nc(N)nc(Nc2c(Cl)ccc3c2OC=CO3)n1", "note": "[Example 44]", "pest or weed control at 500 g/ha": "≥ 85"}
{"system": "SETFA", "test": "Greenhouse test, pre-emergence treatment", "format": "in vivo, Setaria faberi", "conditions": "0.5 kg/ha, SETFA", "source_text": "as §1"}
{"smiles": "CC(C)(F)c1nc(N)nc(Nc2c(Cl)ccc3c2OCO3)n1", "note": "[Example 2]", "herbicidal activity": "very good (a very good herbicidal activity is given at values of at least 85)"}
{"system": "SETFA", "test": "Greenhouse test, pre-emergence treatment", "format": "in vivo, Setaria faberi", "conditions": "125 g/ha, SETFA", "source_text": "as §1"}
{"smiles": "CC(C)Cc1nc(N)nc(Nc2c(F)ccc3c2OCO3)n1", "note": "[Example 26]", "herbicidal activity": "good (a good herbicidal activity is given at values of at least 70)"}
{"smiles": "Nc1nc(Nc2c(F)ccc3c2OCO3)nc(C2CCCCC2)n1", "note": "[Example 27]", "herbicidal activity": "good (a good herbicidal activity is given at values of at least 70)"}
{"system": "SETFA", "test": "Greenhouse test, pre-emergence treatment", "format": "in vivo, Setaria faberi", "conditions": "125 g/ha, STEFTA", "source_text": "as §1"}
{"smiles": "CC(C)(F)c1nc(N)nc(Nc2c(Cl)c(Cl)cc3c2OCO3)n1", "note": "[Example 31]", "herbicidal activity": "very good (a very good herbicidal activity is given at values of at least 85)"}
{"system": "SETFA", "test": "Greenhouse test, pre-emergence treatment", "format": "in vivo, Setaria faberi", "conditions": "250 g/ha, SETFA", "source_text": "as §1"}
{"smiles": "Nc1nc(Nc2c(F)ccc3c2OCO3)nc(C2(Cl)CCC2)n1", "note": "[Example 5]", "herbicidal activity": "very good (a very good herbicidal activity is given at values of at least 85)"}
